# Reference: ChEMBL document CHEMBL3046036, “Bioactivity of the fungal metabolite (8R,16R)-(-)-pyrenophorin on graminaceous plants” (J Agric Food Chem, 2005)
# Columns and labels:
# Assay type in all cases: functional
# Triticum aestivum [1] = test: Inhibition of Triticum aestivum (wheat) seed germination at 20 degC at 320 uM (reference value: 0%)
# Triticum aestivum [2] = test: Inhibition of Triticum aestivum (wheat) seed germination at 20 degC at 200 uM (reference value: 0%)
# Triticum aestivum [3] = test: Inhibition of Triticum aestivum (wheat) seed germination at 20 degC at 100 uM (reference value: 0%)
# Triticum aestivum [4] = test: Inhibition of Triticum aestivum (wheat) seed germination at 20 degC at 90 uM (reference value: 0%)
# Triticum aestivum [5] = test: Inhibition of Triticum aestivum (wheat) seed germination at 20 degC at 80 uM (reference value: 0%)
# Triticum aestivum [6] = test: Inhibition of Triticum aestivum (wheat) seed germination at 20 degC at 70 uM (reference value: 0%)
# Triticum aestivum [7] = test: Inhibition of Triticum aestivum (wheat) seed germination at 20 degC at 60 uM (reference value: 0%)
# Triticum aestivum [8] = test: Inhibition of Triticum aestivum (wheat) seed germination at 20 degC at 10 to 50 uM (reference value: 0%)
# Avena sativa [9] = test: Inhibition of Avena sativa seed germination at 20 degC at 640 uM (reference value: 0%)
# Avena sativa [10] = test: Inhibition of Avena sativa seed germination at 20 degC at 320 uM (reference value: 0%)
# Avena sativa [11] = test: Inhibition of Avena sativa seed germination at 20 degC at 200 uM (reference value: 0%)
# Avena sativa [12] = test: Inhibition of Avena sativa seed germination at 20 degC at 100 uM (reference value: 0%)
# Avena sativa [13] = test: Inhibition of Avena sativa seed germination at 20 degC at 80 uM (reference value: 0%)
# Avena sativa [14] = test: Inhibition of Avena sativa seed germination at 20 degC at 90 uM (reference value: 0%)
# Avena sativa [15] = test: Inhibition of Avena sativa seed germination at 20 degC at 70 uM (reference value: 0%)
# Avena sativa [16] = test: Inhibition of Avena sativa seed germination at 20 degC at 60 uM (reference value: 0%)
# Avena sativa [17] = test: Inhibition of Avena sativa seed germination at 20 degC at 10 to 50 uM (reference value: 0%)
# Avena fatua [18] = test: Inhibition of Avena fatua seed germination at 20 degC at 640 uM (reference value: 0%)
# Avena fatua [19] = test: Inhibition of Avena fatua seed germination at 20 degC at 320 uM (reference value: 0%)
# Avena fatua [20] = test: Inhibition of Avena fatua seed germination at 20 degC at 200 uM (reference value: 0%)
# Avena fatua [21] = test: Inhibition of Avena fatua seed germination at 20 degC at 100 uM (reference value: 0%)
# Avena fatua [22] = test: Inhibition of Avena fatua seed germination at 20 degC at 90 uM (reference value: 0%)
# Avena fatua [23] = test: Inhibition of Avena fatua seed germination at 20 degC at 80 uM (reference value: 0%)
# Avena fatua [24] = test: Inhibition of Avena fatua seed germination at 20 degC at 60 uM (reference value: 0%)
# Avena fatua [25] = test: Inhibition of Avena fatua seed germination at 20 degC at 70 uM (reference value: 0%)
# Avena fatua [26] = test: Inhibition of Avena fatua seed germination at 20 degC at 10 to 50 uM (reference value: 0%)
# Avena sterilis [27] = test: Inhibition of Avena sterilis seed germination at 20 degC at 640 uM (reference value: 0%)
# Avena sterilis [28] = test: Inhibition of Avena sterilis seed germination at 20 degC at 320 uM (reference value: 0%)
# Avena sterilis [29] = test: Inhibition of Avena sterilis seed germination at 20 degC at 200 uM (reference value: 0%)
# Avena sterilis [30] = test: Inhibition of Avena sterilis seed germination at 20 degC at 100 uM (reference value: 0%)
# Avena sterilis [31] = test: Inhibition of Avena sterilis seed germination at 20 degC at 80 uM (reference value: 0%)
# Avena sterilis [32] = test: Inhibition of Avena sterilis seed germination at 20 degC at 90 uM (reference value: 0%)
# Avena sterilis [33] = test: Inhibition of Avena sterilis seed germination at 20 degC at 70 uM (reference value: 0%)
# Avena sterilis [34] = test: Inhibition of Avena sterilis seed germination at 20 degC at 60 uM (reference value: 0%)
# Avena sterilis [35] = test: Inhibition of Avena sterilis seed germination at 20 degC at 10 to 50 uM (reference value: 0%)
smiles,measurement,setting,value
"C[C@@H]1CCC(=O)/C=C/C(=O)O[C@H](C)CCC(=O)/C=C/C(=O)O1 [(8R,16R)-(-)-pyrenophorin]",inhibition at 320 µM,Triticum aestivum [1],98%
same,inhibition at 200 µM,Triticum aestivum [2],90.6%
same,inhibition at 100 µM,Triticum aestivum [3],90.8%
same,inhibition at 90 µM,Triticum aestivum [4],86.2%
same,inhibition at 80 µM,Triticum aestivum [5],81.4%
same,inhibition at 70 µM,Triticum aestivum [6],67.8%
same,inhibition at 60 µM,Triticum aestivum [7],12.4%
same,inhibition (INH),Triticum aestivum [8],0%
same,inhibition at 640 µM,Avena sativa [9],100%
same,inhibition at 320 µM,Avena sativa [10],100%
same,inhibition at 200 µM,Avena sativa [11],95.6%
same,inhibition at 100 µM,Avena sativa [12],93.5%
same,inhibition at 80 µM,Avena sativa [13],82.6%
same,inhibition at 90 µM,Avena sativa [14],89%
same,inhibition at 70 µM,Avena sativa [15],71.5%
same,inhibition at 60 µM,Avena sativa [16],14.5%
same,inhibition (INH),Avena sativa [17],0%
same,inhibition at 640 µM,Avena fatua [18],100%
same,inhibition at 320 µM,Avena fatua [19],100%
same,inhibition at 200 µM,Avena fatua [20],97.9%
same,inhibition at 100 µM,Avena fatua [21],95.3%
same,inhibition at 90 µM,Avena fatua [22],87.8%
same,inhibition at 80 µM,Avena fatua [23],82%
same,inhibition at 60 µM,Avena fatua [24],12.5%
same,inhibition at 70 µM,Avena fatua [25],69.9%
same,inhibition (INH),Avena fatua [26],0%
same,inhibition at 640 µM,Avena sterilis [27],100%
same,inhibition at 320 µM,Avena sterilis [28],100%
same,inhibition at 200 µM,Avena sterilis [29],100%
same,inhibition at 100 µM,Avena sterilis [30],96.8%
same,inhibition at 80 µM,Avena sterilis [31],84.4%
same,inhibition at 90 µM,Avena sterilis [32],89.6%
same,inhibition at 70 µM,Avena sterilis [33],68.5%
same,inhibition at 60 µM,Avena sterilis [34],15%
same,inhibition (INH),Avena sterilis [35],0%
